Experimental findings from patent US11584747B2, “Substituted pyridopyrimidinonyl compounds useful as T cell activators” (BRISTOL-MYERS SQUIBB COMPANY, priority 2019, dated 2023) are described below.

pEC50, pIC50: −log10 of the molar value. Like-named read-outs stand apart in the source and are kept apart here.

Test [1] has as its system human venous whole blood (IFN-γ). Kind of test: Human whole blood IFN-γ assay. It is filed as cell-based. On the procedure:
Human venous whole blood (22.5 μL per well), obtained from healthy donors, was pre-treated with compounds for one hour at 37° C. in a humidified 95% air/5% CO2 incubator. The blood was stimulated with 2.5 μL anti-human CD3 and anti-CD28 mAb at a final concentration of 1 μg/mL each for 24 hours at 37° C. IFN-γ in the supernatants was measured using AlphLISA kit (Cat #AL217).

A further test addresses human DGKα (Homo sapiens (Human), UniProt P23743). Kind of test: DGKα ADPGLO assay (detergent/lipid micelle substrate). It is filed as biochemical. On the procedure:
DGK Alpha ADPGLO (Truncated) IC50 (uM)
The detergent/lipid micelle was prepared by combining 15 g phosphatidylserine (Avanti 840035P) and 1 g diacylglycerol (8008110) and dissolving into 150 mL chloroform in a 2 L round bottom flask. Chloroform was removed under high vacuum by rotary evaporation. […] The lipid/detergent solution was split into 5 mL aliquots and stored at −80° C.
On the technique in general: ADP-Glo first removes unused ATP, then detects ADP through luciferase.

Another test concerns the target human DGKζ (Homo sapiens (Human), UniProt Q13574). In words: DGKζ LIPGLO assay (extruded liposome substrate, ADP-Glo luminescence). It is filed as biochemical.
[2] abbreviates: human whole blood, anti-CD3 plus anti-CD28 stimulation, 24 hours, read-out: IFN-γ Whole Blood EC50.
The mark [3] stands for this setting: ADPGLO assay, read-out: DGK alpha ADPGLO IC50.
Where [4] appears, read: liposome (LIPGLO) assay, read-out: DGK zeta (liposome assay) IC50.
Where [5] appears, read: whole blood, normalized to 3 μM reference compound as 100% activation, read-out: IFN-γ Whole Blood Normalized EC50.
Setting [6] is: truncated DGK alpha, read-out: DGK alpha ADPGLO (Truncated) IC50.
The mark [7] stands for this setting: liposome assay, read-out: DGK zeta LIPGLO IC50.
Setting [8] is: Homo sapiens, whole blood, normalized to 3 μM reference compound as 100% activation, read-out: IFN-γ Whole Blood Normalized EC50.

A word on the pEC50: it is the EC50 on a negative log10 scale, so that one unit is a factor of ten. What is called pIC50 is the negative decadic logarithm of the IC50, by convention in mol/L.

human DGKζ, sequence (Q13574 other isoform, or with tags, fused parts or gaps): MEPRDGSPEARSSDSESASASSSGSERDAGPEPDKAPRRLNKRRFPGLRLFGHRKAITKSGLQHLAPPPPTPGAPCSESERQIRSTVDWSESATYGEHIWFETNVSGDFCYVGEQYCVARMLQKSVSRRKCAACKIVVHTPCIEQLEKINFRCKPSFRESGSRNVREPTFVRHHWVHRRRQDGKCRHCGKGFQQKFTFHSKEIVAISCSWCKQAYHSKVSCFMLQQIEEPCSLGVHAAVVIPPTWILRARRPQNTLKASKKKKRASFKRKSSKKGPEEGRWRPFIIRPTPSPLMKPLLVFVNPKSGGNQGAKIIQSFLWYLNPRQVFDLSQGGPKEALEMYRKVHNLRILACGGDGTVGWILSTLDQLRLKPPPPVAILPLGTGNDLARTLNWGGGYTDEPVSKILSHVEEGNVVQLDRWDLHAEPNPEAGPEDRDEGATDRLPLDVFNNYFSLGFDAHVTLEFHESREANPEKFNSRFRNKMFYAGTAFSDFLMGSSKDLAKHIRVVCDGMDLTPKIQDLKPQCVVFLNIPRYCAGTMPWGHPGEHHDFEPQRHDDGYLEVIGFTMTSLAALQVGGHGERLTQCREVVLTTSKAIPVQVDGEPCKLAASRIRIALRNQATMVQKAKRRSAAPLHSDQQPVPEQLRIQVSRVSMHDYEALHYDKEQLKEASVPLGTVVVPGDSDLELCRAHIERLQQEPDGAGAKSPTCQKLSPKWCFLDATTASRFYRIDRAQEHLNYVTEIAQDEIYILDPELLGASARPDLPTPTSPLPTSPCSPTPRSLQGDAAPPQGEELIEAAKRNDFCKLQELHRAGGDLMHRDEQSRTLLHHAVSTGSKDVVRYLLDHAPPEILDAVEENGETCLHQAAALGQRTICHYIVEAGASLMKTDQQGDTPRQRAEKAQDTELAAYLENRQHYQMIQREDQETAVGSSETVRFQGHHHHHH
human DGKα, sequence (P23743 whole entry, looked up, the tested form may be a part): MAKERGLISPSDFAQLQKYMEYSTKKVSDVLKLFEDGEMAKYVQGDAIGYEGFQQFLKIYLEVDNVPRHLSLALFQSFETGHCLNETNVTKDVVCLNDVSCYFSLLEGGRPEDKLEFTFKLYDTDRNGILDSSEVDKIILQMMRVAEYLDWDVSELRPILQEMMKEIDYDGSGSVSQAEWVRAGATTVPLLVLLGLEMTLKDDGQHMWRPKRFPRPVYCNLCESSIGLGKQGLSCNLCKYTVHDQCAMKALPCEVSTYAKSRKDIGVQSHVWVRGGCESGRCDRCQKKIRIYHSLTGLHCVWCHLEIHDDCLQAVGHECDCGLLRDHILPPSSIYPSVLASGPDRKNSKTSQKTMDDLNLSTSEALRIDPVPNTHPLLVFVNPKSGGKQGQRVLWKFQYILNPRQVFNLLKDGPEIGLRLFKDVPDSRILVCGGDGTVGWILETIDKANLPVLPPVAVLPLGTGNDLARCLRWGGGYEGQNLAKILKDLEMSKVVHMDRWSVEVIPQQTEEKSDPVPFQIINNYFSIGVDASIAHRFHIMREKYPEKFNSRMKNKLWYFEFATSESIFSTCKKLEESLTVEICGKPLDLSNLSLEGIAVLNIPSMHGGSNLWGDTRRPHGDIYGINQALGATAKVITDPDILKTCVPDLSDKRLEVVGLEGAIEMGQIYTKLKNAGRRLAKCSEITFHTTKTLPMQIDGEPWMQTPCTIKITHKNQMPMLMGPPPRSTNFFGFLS

As for `CC[C@H]1CN(C(C)c2nc(C3CC3)no2)[C@H](CC)CN1c1nc(=O)n(C)c2ccc(C#N)nc12` (stereo partly drawn) [Example 361, 4-((2S,5R)-4-(1-(3-cyclopropyl-1,2,4-oxadiazol-5-yl)ethyl)-2,5-diethylpiperazin-1-yl)-1-methyl-2-oxo-1,2-dihydropyrido[3,2-d]pyrimidine-6-carbonitrile], in test [1] (setting [2]), the pEC50 is 6.59. Also, the pIC50 on human DGKα (setting [3]) is 8.30; at human DGKζ (setting [4]), 7.66.
In the case of `CCC(c1ccc(Cl)cc1F)N1C[C@H](CC)N(c2nc(=O)n(C)c3ccc(C#N)nc23)C[C@H]1CC` (stereo partly drawn) [Example 239, 4-((2S,5R)-4-(1-(4-chloro-2-fluorophenyl)propyl)-2,5-diethylpiperazin-1-yl)-1-methyl-2-oxo-1,2-dihydropyrido[3,2-d]pyrimidine-6-carbonitrile], in test [1] (setting [5]), the pEC50 is 5.55. Besides, the pIC50 was 7.03 on human DGKα (setting [6]) and 5.65 on human DGKζ (setting [7]).
Consider `CC(c1ccc(CN2C[C@@H]3C[C@H]2CO3)cc1)N1C[C@H](C)N(c2nc(=O)n(C)c3ccc(C#N)nc23)C[C@H]1C` (stereo partly drawn) [Example 388, 4-((2S,5R)-4-(1-(4-(((1S,4S)-2-oxa-5-azabicyclo[2.2.1]heptan-5-yl)methyl)phenyl)ethyl)-2,5-dimethylpiperazin-1-yl)-1-methyl-2-oxo-1,2-dihydropyrido[3,2-d]pyrimidine-6-carbonitrile], for which, in test [1] (setting [2]), the pEC50 is 4.70. Also, the pIC50 on human DGKα (setting [3]) was 5.76; at human DGKζ (setting [4]), 4.34.
`CC[C@H]1CN(C(c2ccc(F)cc2)c2csc(C(F)(F)F)n2)[C@H](CC)CN1c1nc(=O)n(C)c2ccc(C#N)nc12` (stereo partly drawn) [Example 210, 4-((2S,5R)-2,5-diethyl-4((4-fluorophenyl)(2-(trifluoromethyl)thiazol-4-yl)methyl)piperazin-1-yl)-1-methyl-2-oxo-1,2-dihydropyrido[3,2-d]pyrimidine-6-carbonitrile]: the pEC50 in test [1] (setting [8]) is 7.51. The pIC50 at human DGKα (setting [6]) is 7.34; at human DGKζ (setting [7]) it was 6.01.
As to `CC[C@H]1CN(C(C)c2ccc(CN3CCC(OC)CC3)cc2)[C@H](CC)CN1c1nc(=O)n(C)c2ccc(C#N)nc12` (single isomer, unassigned) [Example 273], the negative logarithm of the EC50 (pEC50) in test [1] (setting [5]) was 6.38. In addition, the pIC50 was 6.00 on human DGKα (setting [6]) and 5.13 on human DGKζ (setting [7]).
Consider `CC[C@H]1CN(C(C)c2ccc(CO)cc2)[C@H](CC)CN1c1nc(=O)n(C)c2ccc(C#N)nc12` (stereo partly drawn) [Example 270, 4-((2S,5R)-2,5-Diethyl-4-(1-(4-(hydroxymethyl)phenyl)ethyl)piperazin-1-yl)-1-methyl-2-oxo-1,2-dihydropyrido[3,2-d]pyrimidine-6-carbonitrile], for which, in test [1] (setting [5]), the pEC50 is 5.86. Further, the negative logarithm of the IC50 (pIC50) on human DGKα (setting [6]) is 8.10; on human DGKζ (setting [7]), 5.63.
The corresponding values for `CC[C@H]1CN(C(C)c2ccc(CO)cc2)[C@H](CC)CN1c1nc(=O)n(C)c2ccc(C#N)nc12` (stereo partly drawn) [Example 271, 4-((2S,5R)-2,5-Diethyl-4-(1-(4-(hydroxymethyl)phenyl)ethyl)piperazin-1-yl)-1-methyl-2-oxo-1,2-dihydropyrido[3,2-d]pyrimidine-6-carbonitrile] are 4.84, 8.00 and 4.90.
As for `CC[C@H]1CN(C(C)c2ccc(OC(C)(C)COC)cc2)[C@H](CC)CN1c1nc(=O)n(C)c2ccc(C#N)nc12` (stereo partly drawn) [Example 189], in test [1] (setting [5]), the pEC50 was 6.35. The pIC50 on human DGKα (setting [6]) was 6.07; at human DGKζ (setting [7]), 4.77.
Consider `CC[C@@H]1CN(c2nc(=O)n(C)c3ccc(C#N)nc23)[C@@H](CC)CN1Cc1ccc(C(F)(F)F)cc1F` [Example 204, 4-((2S,5R)-2,5-diethyl-4-(2-fluoro-4-(trifluoromethyl)benzyl)piperazin-1-yl)-1-methyl-2-oxo-1,2-dihydropyrido[3,2-d]pyrimidine-6-carbonitrile], for which, in test [1] (setting [8]), the pEC50 was 6.39. Moreover, the pIC50 was 6.92 at human DGKα (setting [6]) and 5.85 on human DGKζ (setting [7]).
